Common to all, as to test: Kinase selectivity, scanMAX Kinase assay panel (DiscoverX), % control at 1 uM
What all share (type): binding

Test [1] deals with T1, scanMAX Kinase assay panel (Homo sapiens, UniProt P00519, T315I).
T1 construct: purchased DiscoverX
Conditions: 1 uM, read-out: Percent Control (%). The essentials:
(§1)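 A single concentration of 1 uM, in DMSO, is applied across the kinase panel. Activity against an individual enzyme is assigned where % control is less than 35.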

The target in test [2] is T2, scanMAX Kinase assay panel (Homo sapiens, UniProt P42679).
T2 construct: purchased DiscoverX
T2 sequence (P42679 1-507): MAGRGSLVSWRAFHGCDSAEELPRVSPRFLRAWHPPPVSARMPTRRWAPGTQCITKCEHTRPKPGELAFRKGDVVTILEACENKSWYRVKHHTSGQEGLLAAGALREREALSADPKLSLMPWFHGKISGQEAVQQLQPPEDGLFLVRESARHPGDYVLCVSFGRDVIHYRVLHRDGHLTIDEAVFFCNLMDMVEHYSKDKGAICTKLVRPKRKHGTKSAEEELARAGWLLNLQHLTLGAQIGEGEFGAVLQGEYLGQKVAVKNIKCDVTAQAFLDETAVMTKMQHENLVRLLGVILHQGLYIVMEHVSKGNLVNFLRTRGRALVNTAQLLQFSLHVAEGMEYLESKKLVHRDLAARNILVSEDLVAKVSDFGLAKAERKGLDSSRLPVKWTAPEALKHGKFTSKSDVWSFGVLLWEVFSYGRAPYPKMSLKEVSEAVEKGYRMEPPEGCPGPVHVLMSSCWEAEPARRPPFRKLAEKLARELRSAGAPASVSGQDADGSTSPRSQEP
The following applies: CTK; 1 uM; read-out: Percent Control (%). The essentials: as §1

Test [3] concerns the target T3, scanMAX Kinase assay panel (Homo sapiens, UniProt Q9H2X6).
T3 construct: purchased DiscoverX
The following applies: HIPK2; 1 uM; read-out: Percent Control (%). The essentials: as §1

The target in test [4] is T4, scanMAX Kinase assay panel (Homo sapiens, UniProt Q9UL54).
T4 construct: purchased DiscoverX
T4 sequence (Q9UL54 1-1235): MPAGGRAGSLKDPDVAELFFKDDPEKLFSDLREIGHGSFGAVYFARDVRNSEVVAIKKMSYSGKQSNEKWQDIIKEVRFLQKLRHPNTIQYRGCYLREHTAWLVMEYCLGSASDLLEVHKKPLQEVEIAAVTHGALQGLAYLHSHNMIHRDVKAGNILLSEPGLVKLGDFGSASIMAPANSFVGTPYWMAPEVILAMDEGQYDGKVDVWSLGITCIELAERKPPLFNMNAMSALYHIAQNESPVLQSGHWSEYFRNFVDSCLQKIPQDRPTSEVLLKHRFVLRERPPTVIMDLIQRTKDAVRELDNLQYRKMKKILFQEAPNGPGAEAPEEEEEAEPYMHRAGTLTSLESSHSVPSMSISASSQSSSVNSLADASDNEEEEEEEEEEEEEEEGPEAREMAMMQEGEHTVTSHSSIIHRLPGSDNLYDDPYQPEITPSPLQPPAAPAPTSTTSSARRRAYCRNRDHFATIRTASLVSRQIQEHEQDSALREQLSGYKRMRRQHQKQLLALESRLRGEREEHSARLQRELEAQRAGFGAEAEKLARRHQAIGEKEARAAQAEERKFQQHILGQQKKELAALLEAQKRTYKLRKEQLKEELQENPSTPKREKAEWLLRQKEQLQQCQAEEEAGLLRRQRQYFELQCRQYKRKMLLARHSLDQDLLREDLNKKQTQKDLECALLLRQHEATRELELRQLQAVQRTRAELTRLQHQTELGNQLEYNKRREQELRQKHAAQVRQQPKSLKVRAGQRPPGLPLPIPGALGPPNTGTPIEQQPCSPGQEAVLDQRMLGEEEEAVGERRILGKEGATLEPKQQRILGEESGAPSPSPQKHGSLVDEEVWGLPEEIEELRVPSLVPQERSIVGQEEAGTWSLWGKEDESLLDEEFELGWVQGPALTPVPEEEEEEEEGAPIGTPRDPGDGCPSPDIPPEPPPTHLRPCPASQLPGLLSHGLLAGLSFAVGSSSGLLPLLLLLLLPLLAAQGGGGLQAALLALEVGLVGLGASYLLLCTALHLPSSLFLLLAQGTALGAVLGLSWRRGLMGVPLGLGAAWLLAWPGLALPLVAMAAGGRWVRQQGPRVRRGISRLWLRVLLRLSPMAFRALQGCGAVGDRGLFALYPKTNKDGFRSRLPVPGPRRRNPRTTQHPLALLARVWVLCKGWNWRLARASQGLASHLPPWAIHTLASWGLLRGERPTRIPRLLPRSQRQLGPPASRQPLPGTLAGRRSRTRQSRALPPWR
Conditions: TAOK2; 1 uM; read-out: Percent Control (%). A digest of the protocol: as §1

In test [5] the target is T5, scanMAX Kinase assay panel (Homo sapiens, UniProt Q9Y463).
T5 construct: purchased DiscoverX
Conditions: DYRK1B; 1 uM; read-out: Percent Control (%). A digest of the protocol:
as §1

SMILES strings stand for the structures. Where two headings read alike, the source gives them in different places.

T5 sequence (Q9Y463 whole entry): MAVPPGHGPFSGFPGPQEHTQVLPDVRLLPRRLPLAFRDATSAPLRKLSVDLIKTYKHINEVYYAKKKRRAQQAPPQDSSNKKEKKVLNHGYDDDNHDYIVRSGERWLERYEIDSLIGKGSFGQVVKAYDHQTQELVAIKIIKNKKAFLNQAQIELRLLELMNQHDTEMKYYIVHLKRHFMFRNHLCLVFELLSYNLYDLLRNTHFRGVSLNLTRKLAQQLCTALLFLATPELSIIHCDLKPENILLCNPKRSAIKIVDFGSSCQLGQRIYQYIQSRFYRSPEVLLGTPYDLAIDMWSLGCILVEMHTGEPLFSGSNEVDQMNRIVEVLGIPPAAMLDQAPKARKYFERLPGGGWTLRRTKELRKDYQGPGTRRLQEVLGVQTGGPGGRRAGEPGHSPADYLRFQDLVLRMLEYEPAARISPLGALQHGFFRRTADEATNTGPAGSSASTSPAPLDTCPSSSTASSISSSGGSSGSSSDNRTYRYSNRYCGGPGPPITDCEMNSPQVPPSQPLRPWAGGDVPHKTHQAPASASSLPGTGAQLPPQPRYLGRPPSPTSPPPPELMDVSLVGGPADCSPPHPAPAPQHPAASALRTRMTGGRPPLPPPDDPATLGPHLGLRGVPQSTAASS
T3 sequence (Q9H2X6 whole entry): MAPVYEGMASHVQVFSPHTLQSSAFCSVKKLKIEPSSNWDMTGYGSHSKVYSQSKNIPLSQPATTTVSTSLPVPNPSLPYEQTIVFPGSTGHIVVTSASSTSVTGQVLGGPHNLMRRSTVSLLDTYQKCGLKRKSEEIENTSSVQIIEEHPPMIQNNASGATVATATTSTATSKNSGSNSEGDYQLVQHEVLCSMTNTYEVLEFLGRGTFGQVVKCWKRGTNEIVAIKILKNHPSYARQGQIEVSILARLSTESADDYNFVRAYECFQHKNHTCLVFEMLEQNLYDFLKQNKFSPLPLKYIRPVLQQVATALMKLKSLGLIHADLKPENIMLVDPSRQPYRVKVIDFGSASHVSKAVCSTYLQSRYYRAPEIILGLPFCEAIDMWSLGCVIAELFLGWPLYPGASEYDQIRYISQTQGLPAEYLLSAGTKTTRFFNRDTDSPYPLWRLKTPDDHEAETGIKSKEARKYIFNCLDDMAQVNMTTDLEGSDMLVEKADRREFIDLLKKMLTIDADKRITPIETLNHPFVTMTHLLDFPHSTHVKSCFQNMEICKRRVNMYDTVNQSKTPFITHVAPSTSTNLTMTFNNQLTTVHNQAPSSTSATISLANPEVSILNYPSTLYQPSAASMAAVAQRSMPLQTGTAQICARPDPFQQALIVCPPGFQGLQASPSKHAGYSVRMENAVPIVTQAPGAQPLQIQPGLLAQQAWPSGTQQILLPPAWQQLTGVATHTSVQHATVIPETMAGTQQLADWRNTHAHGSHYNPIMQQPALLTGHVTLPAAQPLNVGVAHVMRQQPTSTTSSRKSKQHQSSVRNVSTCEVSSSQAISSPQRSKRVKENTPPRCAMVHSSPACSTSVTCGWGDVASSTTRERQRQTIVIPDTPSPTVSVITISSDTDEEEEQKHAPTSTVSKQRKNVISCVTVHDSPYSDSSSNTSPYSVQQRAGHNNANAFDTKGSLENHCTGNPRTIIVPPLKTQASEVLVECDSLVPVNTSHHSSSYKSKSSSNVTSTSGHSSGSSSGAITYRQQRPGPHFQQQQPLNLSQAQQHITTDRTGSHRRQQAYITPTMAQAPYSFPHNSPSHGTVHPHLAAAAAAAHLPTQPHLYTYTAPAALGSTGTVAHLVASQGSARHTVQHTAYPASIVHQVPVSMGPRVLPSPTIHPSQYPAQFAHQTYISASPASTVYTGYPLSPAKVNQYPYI

Consider `Cc1ccc(C(=O)Nc2ccc(CN3CCN(C)CC3)c(C(F)(F)F)c2)cc1C#Cc1cnc2c(Nc3cnn(C)c3)cccn12` [Example 1, 4-methyl-3-((8-((1-methyl-1H-pyrazol-4-yl)amino)imidazo[1,2-a]pyridin-3-yl)ethynyl)-N-(4-((4-methylpiperazin-1-yl)methyl)-3-(trifluoromethyl)phenyl)benzamide], for which the remaining binding at 1 µM was found to be 1% in test [1] (ABL1 (T315I)-nonphosphorylated); 1% in test [1] (ABL1 (T315I)-phosphorylated); 22% in test [2]; 61% in test [3]; 14% in test [4]; 93% in test [5].

As for `Cc1ccc(NC(=O)C2(C(=O)Nc3ccc(F)cc3)CC2)cc1C#Cc1cnc2c(Nc3cnn(C(C)C)c3)cccn12` [Example 78], the remaining binding at 1 µM in test [1] (ABL1 (T315I)-nonphosphorylated) was 100%; in test [1] (ABL1 (T315I)-phosphorylated), 100%; in test [2] it was 90%; in test [3] it was 100%; in test [4], 100%; in test [5], 99%.

Take `Cc1cn(-c2cc(NC(=O)c3ccc(C)c(C#Cc4cnc5c(Nc6cnn(C)c6)cccn45)c3)cc(C(F)(F)F)c2)cn1` [Example 12, 4-methyl-N-(3-(4-methyl-1H-imidazol-1-yl)-5-(trifluoromethyl)phenyl)-3-((8-((1-methyl-1H-pyrazol-4-yl)amino)imidazo[1,2-a]pyridin-3-yl)ethynyl)benzamide]: the remaining binding at 1 µM in test [1] (ABL1 (T315I)-nonphosphorylated) came out at 15%; in test [1] (ABL1 (T315I)-phosphorylated) it was 15%; in test [2], 74%; in test [3], 100%; in test [4], 25%; in test [5], 100%.

The record behind these values is patent US10870647B2, “Imidazopyridine derivative, method for preparing same, and pharmaceutical composition containing same as active ingredient for preventing or treating cancer” (DAEGU-GYEONGBUK MEDICAL INNOVATION FOUNDATION, priority 2016, dated 2020).
